Drawing on ChEMBL document CHEMBL1155492, “Evaluation of thieno[3,2-b]pyrrole[3,2-d]pyridazinones as activators of the tumor cell specific M2 isoform of pyruvate kinase” (Bioorg Med Chem Lett, 2010), this text covers Km and Activity for 46 molecules.

Calls of active or inactive are those of the source. The rule behind the calls is not given here.

One may read the Km as the substrate concentration at which the rate is half of its maximum.

In series [1] the test system is O=P(O)(O)OC[C@H]1O[C@@](O)(COP(=O)(O)O)[C@@H](O)[C@@H]1O. Briefly: Activation of human PKM2 assessed as reduction of Km for phosphoenolpyruvate.
Series [2] has the same test system. Briefly: Activation of human PKM2 assessed as effect on Km for ADP.
The target in series [3] is Pyruvate kinase PKM (Homo sapiens) (UniProt P14618). Briefly: Activation of PKM1 assessed as ATP product formation by luminescent pyruvate kinase-luciferase coupled assay.
Series [4] shares this target. Briefly: Activation of PKM1 assessed as pyruvate formation by fluorescent pyruvate kinase-lactate dehydrogenase coupled assay.
For series [5] the target is unchanged. Briefly: Maximum activation of human PKM2 assessed as ATP product formation at 57 uM after 1 hr by luminescent pyruvate kinase-luciferase coupled assay relative to fructose-1,6-bis-phosphate.

Chain of Pyruvate kinase PKM (Homo sapiens) (P14618 2-531 limits assumed): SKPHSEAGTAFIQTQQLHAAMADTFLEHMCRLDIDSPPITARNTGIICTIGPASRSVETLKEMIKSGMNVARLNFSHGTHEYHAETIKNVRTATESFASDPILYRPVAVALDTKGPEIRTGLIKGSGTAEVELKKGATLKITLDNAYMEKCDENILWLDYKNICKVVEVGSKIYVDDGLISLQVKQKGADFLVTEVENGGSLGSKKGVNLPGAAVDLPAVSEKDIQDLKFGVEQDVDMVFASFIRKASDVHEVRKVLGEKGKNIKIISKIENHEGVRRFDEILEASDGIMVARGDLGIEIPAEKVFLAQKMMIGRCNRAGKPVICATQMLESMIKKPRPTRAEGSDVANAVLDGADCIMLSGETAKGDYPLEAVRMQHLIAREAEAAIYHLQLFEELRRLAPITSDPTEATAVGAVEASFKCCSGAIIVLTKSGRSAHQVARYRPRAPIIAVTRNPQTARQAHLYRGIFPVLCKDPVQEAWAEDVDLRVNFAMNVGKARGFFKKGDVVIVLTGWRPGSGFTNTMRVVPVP
Chain of Pyruvate kinase PKM (Homo sapiens), P14618 (P14618 whole entry): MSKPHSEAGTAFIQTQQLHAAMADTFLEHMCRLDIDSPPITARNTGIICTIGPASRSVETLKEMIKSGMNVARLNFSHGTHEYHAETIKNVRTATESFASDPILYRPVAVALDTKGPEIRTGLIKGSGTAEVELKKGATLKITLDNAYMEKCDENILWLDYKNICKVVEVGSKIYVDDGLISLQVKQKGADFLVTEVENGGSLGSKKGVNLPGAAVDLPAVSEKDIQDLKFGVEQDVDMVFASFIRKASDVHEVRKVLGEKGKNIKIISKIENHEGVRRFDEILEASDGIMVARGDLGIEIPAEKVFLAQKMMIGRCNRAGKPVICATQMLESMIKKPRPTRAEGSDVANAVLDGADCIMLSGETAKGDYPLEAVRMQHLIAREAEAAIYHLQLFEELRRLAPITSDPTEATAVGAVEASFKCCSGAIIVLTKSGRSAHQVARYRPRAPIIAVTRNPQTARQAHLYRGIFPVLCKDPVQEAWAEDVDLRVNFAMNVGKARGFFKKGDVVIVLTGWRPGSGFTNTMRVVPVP

“Pyruvate kinase PKM (Homo sapiens), P14618”: the Km in series [1] and in series [2] was 100 µM in each case.
In the case of `Cc1cc2c(s1)c1cnn(Cc3c(F)cccc3F)c(=O)c1n2C`, the result in series [3] and in series [4] was inactive. Also, the Activity in series [5] was 94%.
On to `CC(=O)c1cc2c(s1)c1cnn(Cc3ccccc3F)c(=O)c1n2C`, for which the result in series [3] and in series [4] was inactive. Besides, the Activity in series [5] worked out at 108%.
With `Cc1cc2[nH]c3c(=O)n(Cc4ccccc4F)ncc3c2s1`, the outcome in series [3], in series [4] and in series [5] was inactive.
As to `Cc1cc2c(s1)c1cnn(Cc3ccccc3Cl)c(=O)c1n2C`, the result in series [3] and in series [4] was inactive. Besides, the Activity in series [5] was determined as 96%.
`CC(C)c1cc2c(s1)c1cnn(Cc3ccccc3F)c(=O)c1n2C`: the outcome in series [3] and in series [4] was inactive. Further, the Activity in series [5] was 106%.
For `Cc1cc2c(s1)c1cnn(Cc3ccc(C(F)(F)F)cc3)c(=O)c1n2C`, the result in series [3] and in series [4] was inactive. In addition, the Activity in series [5] amounted to 56%.
Regarding `Cc1ccc(Cn2ncc3c4sc(C)cc4n(C)c3c2=O)c(F)c1`, the result in series [3] and in series [4] was inactive. For the same molecule, the Activity in series [5] was 81%.
Take `Cn1c2ccsc2c2ncn(Cc3ccccc3F)c(=O)c21`: the result in series [3] and in series [4] was inactive. Moreover, the Activity in series [5] stood at 61%.
Turning to `COC(=O)c1cc2c(s1)c1cnn(Cc3ccccc3F)c(=O)c1n2C`, the result in series [3] and in series [4] was inactive. Also, in series [5], the Activity was determined as 70%.
Take `Cc1cc2c(s1)c1cnn(Cc3cccc(F)c3)c(=O)c1n2C`: the outcome in series [3] and in series [4] was inactive. In addition, in series [5], the Activity came to 92%.
Consider `Cc1cc2c(s1)c1cnn(Cc3ccc(F)cc3F)c(=O)c1n2C`, for which the outcome in series [3] and in series [4] was inactive.
On to `CSc1cc2c(s1)c1cnn(Cc3ccccc3F)c(=O)c1n2C`, for which the outcome in series [3] and in series [4] was inactive. In addition, in series [5], the Activity came to 96%.
Take `Cc1cc2c(s1)c1cnn(Cc3ccc(C(F)(F)F)cc3F)c(=O)c1n2C`: the outcome in series [3] and in series [4] was inactive. The Activity in series [5] came to 59%.
Consider `CCCCCn1ncc2c3sc(C)cc3n(C)c2c1=O`, for which the outcome in series [3] and in series [4] was inactive. In series [5], the Activity stood at 47%.
For `COc1cccc(Cn2ncc3c4sc([S+](C)[O-])cc4n(C)c3c2=O)c1` (stereo not drawn), the outcome in series [3] and in series [4] was inactive. Also, the Activity in series [5] is 99%.
With `Cc1cc2c(s1)c1cnn(-c3ccccc3)c(=O)c1n2C`, the outcome in series [3], in series [4] and in series [5] was inactive.
As to `CCc1cc2c(s1)c1cnn(Cc3ccccc3F)c(=O)c1n2C`, the result in series [3] and in series [4] was inactive. Moreover, the Activity in series [5] came to 105%.
On to `COc1cc2c(s1)c1cnn(Cc3ccccc3F)c(=O)c1n2C`, for which the outcome in series [3] and in series [4] was inactive.
For the molecule `Cn1c2ccsc2c2cnn(Cc3ccccc3F)c(=O)c21`, the outcome in series [3] and in series [4] was inactive. The Activity in series [5] was 93%.
As for `CC(=O)Nc1cc2c(s1)c1cnn(Cc3ccccc3F)c(=O)c1n2C`, the outcome in series [3] and in series [4] was inactive. Moreover, the Activity in series [5] came to 59%.
`Cc1cc2c(s1)c1cnn(Cc3ccccc3)c(=O)c1n2C`: the outcome in series [3] and in series [4] was inactive.
In the case of `Cc1cc2c(s1)c1cnn(Cc3ccccc3F)c(=O)c1n2C(C)C`, the result in series [3], in series [4] and in series [5] was inactive.
As to `Cc1ccc(Cn2ncc3c4sc(C)cc4n(C)c3c2=O)cc1`, the outcome in series [3] and in series [4] was inactive. Further, the Activity in series [5] came out at 84%.
As to `Cc1cc2c(s1)c1cnn(Cc3ccc(F)c(F)c3F)c(=O)c1n2C`, the result in series [3] and in series [4] was inactive. Besides, in series [5], the Activity came to 69%.
With `COc1ccc(Cn2ncc3c4sc(C)cc4n(C)c3c2=O)cc1`, the result in series [3] and in series [4] was inactive. In addition, in series [5], the Activity is 96%.
Regarding `Cn1c2cc(CO)sc2c2cnn(Cc3ccccc3F)c(=O)c21`, the result in series [3] and in series [4] was inactive. For the same molecule, in series [5], the Activity was 103%.
For the molecule `Cc1cc2c(s1)c1c(C)nn(Cc3ccccc3F)c(=O)c1n2C`, the outcome in series [3] and in series [4] was inactive. In series [5], the Activity was 56%.
With `Cn1c2cc([N+](=O)[O-])sc2c2cnn(Cc3ccccc3F)c(=O)c21`, the outcome in series [3] and in series [4] was inactive.
As to `Cn1c2cc(S(C)(=O)=O)sc2c2cnn(Cc3ccccc3F)c(=O)c21`, the result in series [3], in series [4] and in series [5] was inactive.
On to `Cn1c2cc(B(O)O)sc2c2cnn(Cc3ccccc3F)c(=O)c21`, for which the outcome in series [3] and in series [4] was inactive. The Activity in series [5] is 101%.
On to `CC(O)c1cc2c(s1)c1cnn(Cc3ccccc3F)c(=O)c1n2C` (stereo not drawn), for which the outcome in series [3] and in series [4] was inactive. In series [5], the Activity was 120%.
For `Cn1c2cc([S+](C)[O-])sc2c2cnn(Cc3cccc(O)c3)c(=O)c21` (stereo not drawn), the result in series [3] and in series [4] was inactive. The Activity in series [5] came to 102%.
For `CCn1c2cc(C)sc2c2cnn(Cc3ccccc3F)c(=O)c21`, the result in series [3] and in series [4] was inactive. Further, the Activity in series [5] stood at 96%.
Regarding `COc1ccc(Cn2ncc3c4sc(C)cc4n(C)c3c2=O)cc1F`, the result in series [3] and in series [4] was inactive. In addition, the Activity in series [5] is 68%.
In the case of `Cc1cc2c(s1)c1cnn(Cc3c(F)c(F)cc(F)c3F)c(=O)c1n2C`, the outcome in series [3] and in series [4] was inactive. Also, in series [5], the Activity was found to be 59%.
In the case of `Cc1cc2c(s1)c1cnn(Cc3ccccc3F)c(=O)c1n2C`, the outcome in series [3] and in series [4] was inactive. Moreover, the Activity in series [5] was found to be 122%.
As to `Cn1c2cc([S+](C)[O-])sc2c2cnn(Cc3ccccc3F)c(=O)c21` (stereo not drawn), the result in series [3] and in series [4] was inactive. Moreover, in series [5], the Activity worked out at 98%.
For `Cc1cc2c(s1)c1cnn(Cc3ccc(F)cc3)c(=O)c1n2C`, the outcome in series [3] and in series [4] was inactive. The Activity in series [5] is 102%.
With `Cn1c2cc(C=O)sc2c2cnn(Cc3ccccc3F)c(=O)c21`, the outcome in series [3] and in series [4] was inactive. Moreover, the Activity in series [5] was 100%.
As to `Cc1cc2c(s1)c1cnn(Cc3cccc(C)c3F)c(=O)c1n2C`, the outcome in series [3] and in series [4] was inactive. In series [5], the Activity is 97%.
For `Cc1cc2c(s1)c1cnn(Cc3cccc(Cl)c3)c(=O)c1n2C`, the result in series [3] and in series [4] was inactive. Moreover, the Activity in series [5] came out at 99%.
With `Cc1cc2c(s1)c1cnn(Cc3ccc(Cl)cc3)c(=O)c1n2C`, the result in series [3] and in series [4] was inactive. Moreover, the Activity in series [5] came out at 91%.
As to `Cc1cc2c(s1)c1cnn(Cc3cccc(F)c3F)c(=O)c1n2C`, the outcome in series [3] and in series [4] was inactive. For the same molecule, the Activity in series [5] is 73%.
On to `Cc1cc2c(s1)c1cnn(Cc3c(F)cccc3Cl)c(=O)c1n2C`, for which the outcome in series [3] and in series [4] was inactive. The Activity in series [5] stood at 93%.
Take `Cn1c2cc(C#N)sc2c2cnn(Cc3ccccc3F)c(=O)c21`: the result in series [3] and in series [4] was inactive. Moreover, in series [5], the Activity amounted to 84%.
